In ChEMBL document CHEMBL5143617 (Eur J Med Chem, 2022):
Converted amounts (≈) assume the structure as drawn.

Columns and labels:
[1] = Plasma protein binding in human by LC-MS/MS analysis; type: ADME, cell-free; conditions: read-out: PPB (converted)
[2] = AUC(0 to t) in mouse hippocampus at 0.625 mg/kg, ip by LC/ESI-MS/MS analysis; type: ADME, organism-based; parameters: dose 0.625 mg/kg, route ip
[3] = AUC(0 to t) in mouse plasma at 0.625 mg/kg, ip measured up to 480 mins by LC/ESI-MS/MS analysis; type: ADME, organism-based; parameters: time < 480 min, dose 0.625 mg/kg, route ip; conditions: in vivo, 8 h
[4] = Metabolic stability in human liver microsomes assessed as intrinsic clearance
[5] = Apparent volume of distribution in mouse plasma at 0.625 mg/kg, ip measured up to 480 mins by LC/ESI-MS/MS analysis; type: ADME, organism-based
[6] = biological target: 5-hydroxytryptamine receptor 2A (Homo sapiens, UniProt P28223); experiment: Binding affinity to 5HT-2A receptor (unknown origin)
[7] = AUC(0 to t) in mouse frontal cortex at 0.625 mg/kg, ip by LC/ESI-MS/MS analysis; type: ADME, organism-based; parameters: dose 0.625 mg/kg, route ip
[8] = Cmax in mouse striatum at 0.625 mg/kg, ip by LC/ESI-MS/MS analysis; type: ADME, organism-based; parameters: dose 0.625 mg/kg, route ip
D(2) dopamine receptor = D(2) dopamine receptor (Homo sapiens, UniProt P14416); experiment: Binding affinity to dopamine D2 receptor (unknown origin)
[9] = Cmax in mouse plasma at 0.625 mg/kg, ip measured up to 480 mins by LC/ESI-MS/MS analysis; type: ADME, organism-based; parameters: time < 480 min, dose 0.625 mg/kg, route ip
[10] = Cmax in mouse frontal cortex at 0.625 mg/kg, ip by LC/ESI-MS/MS analysis; type: ADME, organism-based; parameters: dose 0.625 mg/kg, route ip
[11] = biological target: T1, Adrenergic receptor alpha-1 (Homo sapiens, UniProt P35348+P25100+P35368); experiment: Binding affinity to adrenergic alpha 1 receptor (unknown origin); type: protein assay
T1 sequence (P35348 whole entry): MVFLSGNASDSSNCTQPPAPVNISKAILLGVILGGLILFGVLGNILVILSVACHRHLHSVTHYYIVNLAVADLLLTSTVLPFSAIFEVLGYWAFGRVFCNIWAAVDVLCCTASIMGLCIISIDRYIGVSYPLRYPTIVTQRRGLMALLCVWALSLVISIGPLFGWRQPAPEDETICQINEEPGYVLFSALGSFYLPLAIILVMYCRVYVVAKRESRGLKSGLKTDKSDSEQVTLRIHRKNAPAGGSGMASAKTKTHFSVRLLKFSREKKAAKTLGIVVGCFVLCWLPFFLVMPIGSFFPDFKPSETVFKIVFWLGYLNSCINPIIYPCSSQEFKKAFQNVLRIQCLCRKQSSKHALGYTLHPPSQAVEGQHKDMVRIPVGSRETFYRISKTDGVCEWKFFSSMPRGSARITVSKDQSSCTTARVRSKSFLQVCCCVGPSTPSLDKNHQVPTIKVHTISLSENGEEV
T1 sequence (P25100 whole entry): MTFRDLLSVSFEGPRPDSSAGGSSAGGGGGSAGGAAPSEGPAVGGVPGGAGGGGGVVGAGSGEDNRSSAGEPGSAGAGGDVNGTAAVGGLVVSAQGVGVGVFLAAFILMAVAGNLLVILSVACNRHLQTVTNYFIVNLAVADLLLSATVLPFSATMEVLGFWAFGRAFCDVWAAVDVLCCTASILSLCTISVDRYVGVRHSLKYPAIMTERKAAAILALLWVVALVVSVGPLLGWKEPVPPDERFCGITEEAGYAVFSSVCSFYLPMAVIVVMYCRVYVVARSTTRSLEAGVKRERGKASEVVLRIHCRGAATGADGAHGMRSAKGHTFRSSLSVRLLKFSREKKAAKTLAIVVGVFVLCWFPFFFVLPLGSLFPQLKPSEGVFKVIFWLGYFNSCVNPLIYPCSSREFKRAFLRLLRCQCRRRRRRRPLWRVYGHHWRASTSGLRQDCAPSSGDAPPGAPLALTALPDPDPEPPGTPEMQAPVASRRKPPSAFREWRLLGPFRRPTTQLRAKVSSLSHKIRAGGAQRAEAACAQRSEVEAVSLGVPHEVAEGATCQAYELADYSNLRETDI
T1 sequence (P35368 whole entry): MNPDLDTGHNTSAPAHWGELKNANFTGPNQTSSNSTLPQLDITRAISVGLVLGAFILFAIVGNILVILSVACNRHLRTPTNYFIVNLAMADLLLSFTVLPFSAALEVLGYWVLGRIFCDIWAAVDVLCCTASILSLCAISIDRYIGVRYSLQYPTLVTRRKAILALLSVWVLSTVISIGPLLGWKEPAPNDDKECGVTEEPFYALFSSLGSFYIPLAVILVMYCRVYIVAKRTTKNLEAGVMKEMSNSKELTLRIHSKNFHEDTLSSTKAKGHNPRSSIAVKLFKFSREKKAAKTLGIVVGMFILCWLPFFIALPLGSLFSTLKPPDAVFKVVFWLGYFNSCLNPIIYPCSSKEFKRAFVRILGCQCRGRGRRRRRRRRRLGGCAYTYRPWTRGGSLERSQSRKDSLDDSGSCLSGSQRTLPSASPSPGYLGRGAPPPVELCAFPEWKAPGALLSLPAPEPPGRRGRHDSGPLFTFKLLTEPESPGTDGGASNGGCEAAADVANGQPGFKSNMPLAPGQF

[12] = Aqueous solubility of compound in simulated gastric fluid by UV absorbance based analysis; type: physicochemical
[13] = Ratio of drug concentration in Hippocampus to plasma in mouse at 0.625 mg/kg, ip by LC/ESI-MS/MS analysis; type: ADME, organism-based; conditions: hippocampus and plasma
[14] = Ratio of drug concentration in frontal cortex to plasma in mouse at 0.625 mg/kg, ip by LC/ESI-MS/MS analysis; type: ADME, organism-based; conditions: frontal cortex and plasma
Erythrocyte = experiment: Hemolytic activity in human erythrocytes at 10^-6 to 10^-5 M after 30 mins by spectrophotometry; type: toxicity, cell-based; conditions: 0.5 h, dose lower 1e-06 µmol/L, dose upper 1e-05 µmol/L
[15] = Cmax in mouse hippocampus at 0.625 mg/kg, ip by LC/ESI-MS/MS analysis; type: ADME, organism-based; parameters: dose 0.625 mg/kg, route ip
[16] = Tmax in mouse striatum at 0.625 mg/kg, ip by LC/ESI-MS/MS analysis; type: ADME, organism-based
[17] = biological target: 5-hydroxytryptamine receptor 7 (Homo sapiens, UniProt P34969); experiment: Displacement of [3H]-5-CT from human 5-HT7 receptor expressed in CHO-K1 cells membrane by scintillation counter analysis; type: cell membranes
[18] = Metabolic stability in human liver microsomes assessed as half life
[19] = AUC(0 to t) in mouse striatum at 0.625 mg/kg, ip by LC/ESI-MS/MS analysis; type: ADME, organism-based; parameters: dose 0.625 mg/kg, route ip
[20] = Permeability of the compound across apical to basolateral side in human Caco-2 cells at pH 6.5; type: ADME, cell-based; conditions: Caco-2, pH 6.5, read-out: Papp

Chain of 5-hydroxytryptamine receptor 7 (P34969 whole entry): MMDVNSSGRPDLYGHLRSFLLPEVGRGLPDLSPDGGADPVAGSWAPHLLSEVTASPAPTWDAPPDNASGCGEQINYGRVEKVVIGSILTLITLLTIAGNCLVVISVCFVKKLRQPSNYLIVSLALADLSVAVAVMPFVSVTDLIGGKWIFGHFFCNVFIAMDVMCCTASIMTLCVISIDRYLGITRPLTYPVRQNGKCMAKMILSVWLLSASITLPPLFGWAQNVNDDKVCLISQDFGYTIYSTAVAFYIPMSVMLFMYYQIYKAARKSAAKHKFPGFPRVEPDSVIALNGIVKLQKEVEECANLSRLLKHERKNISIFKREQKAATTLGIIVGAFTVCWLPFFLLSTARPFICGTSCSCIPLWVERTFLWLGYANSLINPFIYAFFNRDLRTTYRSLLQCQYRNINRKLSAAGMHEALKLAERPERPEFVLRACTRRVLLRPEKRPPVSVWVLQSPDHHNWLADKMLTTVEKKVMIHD
Chain of D(2) dopamine receptor (P14416 whole entry): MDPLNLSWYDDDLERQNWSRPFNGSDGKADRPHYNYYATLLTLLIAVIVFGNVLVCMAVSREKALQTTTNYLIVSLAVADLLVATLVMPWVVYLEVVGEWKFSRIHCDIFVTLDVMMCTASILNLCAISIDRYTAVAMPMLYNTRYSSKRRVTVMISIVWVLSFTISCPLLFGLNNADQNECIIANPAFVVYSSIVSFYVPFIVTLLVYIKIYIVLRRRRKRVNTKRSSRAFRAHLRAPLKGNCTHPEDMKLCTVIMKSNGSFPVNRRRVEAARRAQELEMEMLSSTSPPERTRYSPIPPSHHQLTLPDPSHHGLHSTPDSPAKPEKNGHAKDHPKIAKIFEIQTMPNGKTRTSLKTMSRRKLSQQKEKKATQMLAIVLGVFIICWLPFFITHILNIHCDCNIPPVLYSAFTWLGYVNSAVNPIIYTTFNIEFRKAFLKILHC
Chain of 5-hydroxytryptamine receptor 2A (P28223 whole entry): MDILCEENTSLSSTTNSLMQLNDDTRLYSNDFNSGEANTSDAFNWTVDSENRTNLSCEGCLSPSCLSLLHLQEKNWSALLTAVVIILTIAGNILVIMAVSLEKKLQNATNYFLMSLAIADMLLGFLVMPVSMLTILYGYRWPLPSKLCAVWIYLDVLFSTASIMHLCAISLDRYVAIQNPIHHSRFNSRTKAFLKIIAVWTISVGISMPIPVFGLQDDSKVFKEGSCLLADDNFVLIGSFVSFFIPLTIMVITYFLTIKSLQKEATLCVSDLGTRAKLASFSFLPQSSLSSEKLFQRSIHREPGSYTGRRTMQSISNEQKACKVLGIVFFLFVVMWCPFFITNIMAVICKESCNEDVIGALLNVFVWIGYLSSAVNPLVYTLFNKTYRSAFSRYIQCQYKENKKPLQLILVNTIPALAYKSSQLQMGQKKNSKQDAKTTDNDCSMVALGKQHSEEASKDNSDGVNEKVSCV

COc1cc2ncnc(N3CCC(CN4CCN(c5ccc(Cl)cc5)CC4)C3)c2cc1OC (configuration not stated)
fraction unbound [1]: 0.018
AUC(0-t) [2]: 1040 ng·h/mL
AUCt [3]: 730 ng·min/mL
microsomal CLint [4]: 75.8 µL/min/mg
Vd/F [5]: 0.272 L/kg
Ki [6]: > 1000 nM
AUC(0-t) [7]: 1820 ng·h/mL
Cmax [8]: 317 ng/mL
Ki (D(2) dopamine receptor): > 1000 nM
Cmax [9]: 4.1 ng/mL
Cmax [10]: 327 ng/mL
pKi [11]: 6.11
solubility [12]: 196 µM (≈ 91.9 µg/mL)
Kp [13]: 85.4
Kp [14]: 149
Activity (Erythrocyte): Non-Toxic
Cmax [15]: 330 ng/mL
Tmax [16]: 30 min
Ki [17]: 138 nM
half-life [18]: 49 min
AUC(0-t) [19]: 1060 ng·h/mL
Papp A→B [20]: 0.26 ×10⁻⁶ cm/s
